Legend:
Type in all cases: cell-based
[1] = target: T1, F876L mutant Androgen Receptor (AR-F876L) (Homo sapiens (Human), UniProt P10275, F877L); experiment: LNCaP-AR-F876L ANT reporter assay (antagonist mode); conditions: for IC50 / LNCaP-AR-F876L ANT pIC50: pIC50 = −Log10(IC50 in Molar); for IC50: read-out: LNCaP-AR-F876L ANT pIC50 (converted); for Emax: read-out: LNCaP-AR-F876L ANT MAX % Inh
[2] = target: T1, F876L mutant Androgen Receptor (AR-F876L); experiment: LNCaP-AR-F876L AG reporter assay (agonist mode); conditions: for EC50 / LNCaP-AR-F876L AG pEC50: pEC50 = −Log10(EC50 in Molar); for EC50: read-out: LNCaP-AR-F876L AG pEC50 (converted); for Emax: read-out: LNCaP-AR-F876L AG MAX % Stim
[3] = target: T2, wild-type Androgen Receptor (AR-wt) (Homo sapiens (Human), UniProt P10275); experiment: LNCaP-AR-wt AG reporter assay (agonist mode); conditions: for EC50 / LNCaP-AR-wt AG pEC50: pEC50 = −Log10(EC50 in Molar); for EC50: read-out: LNCaP-AR-wt AG pEC50 (converted); for Emax: read-out: LNCaP-AR-wt AG MAX % Stim
T2 sequence (P10275 whole entry): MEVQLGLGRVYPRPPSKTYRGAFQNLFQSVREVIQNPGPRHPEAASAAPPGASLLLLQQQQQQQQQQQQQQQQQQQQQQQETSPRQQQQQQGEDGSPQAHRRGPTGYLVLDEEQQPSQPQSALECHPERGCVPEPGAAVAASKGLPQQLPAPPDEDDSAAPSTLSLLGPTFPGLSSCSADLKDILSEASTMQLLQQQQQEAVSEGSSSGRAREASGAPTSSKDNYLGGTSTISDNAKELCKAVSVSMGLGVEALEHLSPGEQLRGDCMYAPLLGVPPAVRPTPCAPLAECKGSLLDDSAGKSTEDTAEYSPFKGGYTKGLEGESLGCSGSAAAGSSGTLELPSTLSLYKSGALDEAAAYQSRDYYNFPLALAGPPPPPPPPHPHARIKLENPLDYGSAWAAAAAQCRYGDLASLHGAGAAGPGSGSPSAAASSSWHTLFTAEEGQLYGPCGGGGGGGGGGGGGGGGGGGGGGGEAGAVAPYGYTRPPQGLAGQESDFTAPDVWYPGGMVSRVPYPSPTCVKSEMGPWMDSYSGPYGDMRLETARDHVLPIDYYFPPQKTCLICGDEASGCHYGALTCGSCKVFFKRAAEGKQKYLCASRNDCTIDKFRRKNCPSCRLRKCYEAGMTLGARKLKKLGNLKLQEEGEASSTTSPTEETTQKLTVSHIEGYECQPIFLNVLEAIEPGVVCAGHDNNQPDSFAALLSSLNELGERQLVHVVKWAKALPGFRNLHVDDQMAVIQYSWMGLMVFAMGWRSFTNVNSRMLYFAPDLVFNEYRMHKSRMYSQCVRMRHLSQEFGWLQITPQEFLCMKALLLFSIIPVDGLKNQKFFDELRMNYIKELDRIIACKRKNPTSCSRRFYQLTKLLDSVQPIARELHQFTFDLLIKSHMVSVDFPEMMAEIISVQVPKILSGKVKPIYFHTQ

[4] = target: T2, wild-type Androgen Receptor (AR-wt); experiment: LNCaP-AR-wt ANT reporter assay (antagonist mode); conditions: for IC50 / LNCaP-AR-wt ANT pIC50: pIC50 = −Log10(IC50 in Molar); for IC50: read-out: LNCaP-AR-wt ANT pIC50 (converted); for Emax: read-out: LNCaP-AR-wt ANT MAX % Inh
[5] = maximum % inhibition of R1881 control response over the tested concentration range
[6] = maximum % stimulation (agonist response) over the tested concentration range
[7] = antagonist mode, maximum % inhibition of R1881 control response over tested concentration range
[8] = agonist mode, maximum % stimulation over tested concentration range

T1 sequence (P10275 whole entry F877L): as the sequence (P10275 whole entry) above, with F877L counted along it

| Molecule | IC50 ([1]; antagonist mode) | Emax [1, 5] | EC50 ([2]; agonist mode) | Emax [2, 6] | EC50 ([3]; agonist mode) | Emax [3, 6] | IC50 ([4]; antagonist mode) | Emax [4, 5] | LNCaP-AR-F876L ANT pIC50 ([1]; antagonist mode) | LNCaP-AR-F876L ANT MAX % Inh [1, 5] | LNCaP-AR-F876L AG pEC50 ([2]; agonist mode) | LNCaP-AR-F876L AG MAX % Stim [2, 6] | LNCaP-AR-wt AG pEC50 ([3]; agonist mode) | LNCaP-AR-wt AG MAX % Stim [3, 6] | LNCaP-AR-wt ANT pIC50 ([4]; antagonist mode) | LNCaP-AR-wt ANT MAX % Inh [4, 5] | Emax [1, 7] | Emax [2, 8] | Emax [3, 8] | Emax [4, 7] |
| --- | --- | --- | --- | --- | --- | --- | --- | --- | --- | --- | --- | --- | --- | --- | --- | --- | --- | --- | --- | --- |
| N#Cc1ncc(N2C(=O)C3(CCC3)N(c3ccc4c(cnn4CCO)c3)C2=S)cc1C(F)(F)F [Cpd 159, 5-[8-[1-(2-hydroxyethyl)indazol-5-yl]-5-oxo-7-thioxo-6,8-diazaspiro[3.4]octan-6-yl]-3-(trifluoromethyl)pyridine-2-carbonitrile] | 309 nM | 100% | > 15100 nM | 0.2% | > 15100 nM | 0.2% | 1350 nM | 100% | – | – | – | – | – | – | – | – | – | – | – | – |
| 3-chloro-5-[8-[1-(2-methoxyethyl)indazol-5-yl]-5-oxo-7-thioxo-6,8-diazaspiro[3.4]octan-6-yl]pyridine-2-carbonitrile [Cpd 171] | – | – | – | – | – | – | – | – | 6.80 | 100.8% | <4.82 | 0.1% | <4.82 | 0.2% | 6.45 | 101.3% | – | – | – | – |
| N#Cc1ncc(N2C(=O)C3(CCC3)N(c3ccc(CN4CCNC(=O)C4)cc3)C2=S)cc1C(F)(F)F [Cpd 228, 5-[5-oxo-8-[4-[(3-oxopiperazin-1-yl)methyl]phenyl]-7-thioxo-6,8-diazaspiro[3.4]octan-6-yl]-3-(trifluoromethyl)pyridine-2-carbonitrile] | 115 nM | – | > 15100 nM | – | > 15100 nM | – | 209 nM | – | – | – | – | – | – | – | – | – | 101% | 0.1% | -0.2% | 102% |
| N#Cc1ncc(N2C(=O)C3(CCC3)N(c3ccc4c(ccn4C4CCNCC4)c3)C2=S)cc1C(F)(F)F [Cpd 249, 5-[8-Oxo-5-(1-piperidin-4-yl-1H-indol-5-yl)-6-thioxo-5,7-diaza-spiro[3.4]oct-7-yl]-3-trifluoromethyl-pyridine-2-carbonitrile] | 316 nM | – | > 15100 nM | – | > 15100 nM | – | 407 nM | – | – | – | – | – | – | – | – | – | 103% | 0% | 0% | 0% |
| CC(C)(C)OC(=O)N1C2CCC1CC(c1ccc(N3C(=S)N(c4cnc(C#N)c(C(F)(F)F)c4)C(=O)C34CCC4)cc1)C2 (stereo not shown) [Cpd 113, tert-butyl 3-[4-[6-[6-cyano-5-(trifluoromethyl)-3-pyridyl]-5-oxo-7-thioxo-6,8-diazaspiro[3.4]octan-8-yl]phenyl]-8-azabicyclo[3.2.1]octane-8-carboxylate] | – | 83.6% | – | 1.8% | – | 0.3% | – | 89% | 6.26 | – | <4.82 | – | <4.82 | – | 6.35 | – | – | – | – | – |
| N#Cc1ncc(N2C(=O)C3(CCC3)N(c3ccc(C(=O)NCC4CCNCC4)c(F)c3)C2=S)cc1C(F)(F)F [Cpd 221, 4-[6-[6-cyano-5-(trifluoromethyl)-3-pyridyl]-5-oxo-7-thioxo-6,8-diazaspiro[3.4]octan-8-yl]-2-fluoro-N-(4-piperidylmethyl)benzamide] | 589 nM | – | > 15100 nM | – | > 15100 nM | – | 891 nM | – | – | – | – | – | – | – | – | – | 100% | 0.1% | -0.1% | 101% |
| Cc1cc(N2C(=O)C3(CCC3)N(c3cnc(OC4CCNCC4)nc3)C2=S)cnc1C#N [Cpd 246, 3-methyl-5-[5-oxo-8-[2-(4-piperidyloxy)pyrimidin-5-yl]-7-thioxo-6,8-diazaspiro[3.4]octan-6-yl]pyridine-2-carbonitrile] | 1150 nM | – | > 15100 nM | – | > 15100 nM | – | 1120 nM | – | – | – | – | – | – | – | – | – | 99.5% | 0.2% | 0.1% | 0% |
| Cc1cc(N2C(=O)C3(CCC3)N(c3ccc(OC4CCSCC4)nc3)C2=S)cnc1C#N [Cpd 21, 3-methyl-5-[5-oxo-8-(6-thian-4-yloxy(3-pyridyl))-7-thioxo-6,8-diazaspiro[3.4]oct-6-yl]pyridine-2-carbonitrile] | 309 nM | 69.9% | > 15100 nM | 0.3% | > 15100 nM | -0.1% | 501 nM | 80.6% | – | – | – | – | – | – | – | – | – | – | – | – |

— US10981926B2 (Janssen Pharmaceutica NV, priority 2016, dated 2021)
